In patent US5650428A, “Arylsulfonamide derivative and pharmaceutical compositions and use thereof” (NKK Corporation, priority 1993, dated 1997):

Assays:
[1] = test system: rat platelet; assay: Inhibitory activity of aggregation in rat platelet; format: cell-based; details: rat platelet rich plasma, arachidonic acid (final concentration 0.5 mM) as inducer; read-out: C: Inhibitory activity of aggregation in rat platelet (IC50; μM)
Summary of the method: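 Platelet-rich plasma was prepared from citrated (0.38% final) rat abdominal arterial blood and preincubated 1 min at 37°C. Compound was added 2 min before arachidonic acid (0.5 mM final). Light transmission change was recorded for 5 min.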

[2] = target: T1, isolated rat artery (thoracic aorta) (Rattus norvegicus, UniProt P34978); assay: Inhibitory activity of vasoconstriction of isolated rat artery; format: cell-based; details: pA2; rat thoracic aorta ring preparation, 37° C.; read-out: B: Inhibitory activity of vasoconstriction (rat artery) (pA2) (converted)
T1 construct: the thoracic aorta was quickly removed; from tissue; host or cells: thoracic aorta rings of male Wistar rats, endothelium 'gently cleaned'
T1 sequence (P34978 1-341): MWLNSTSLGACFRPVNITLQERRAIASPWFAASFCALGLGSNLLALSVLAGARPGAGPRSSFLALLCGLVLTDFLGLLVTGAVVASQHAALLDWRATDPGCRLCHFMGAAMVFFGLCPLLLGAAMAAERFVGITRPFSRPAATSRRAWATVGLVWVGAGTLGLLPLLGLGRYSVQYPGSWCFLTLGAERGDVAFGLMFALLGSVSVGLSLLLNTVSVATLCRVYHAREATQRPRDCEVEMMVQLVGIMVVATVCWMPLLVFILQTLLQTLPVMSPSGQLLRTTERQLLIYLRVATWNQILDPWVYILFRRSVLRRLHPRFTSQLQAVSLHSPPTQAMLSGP
Method: (2) Inhibitory Activity of Vasoconstriction of Isolated Rat Artery
Rats (Wistar; male; body weight=250-300 g) were stunned by a blow to the head and exsanguinated. Then, the thoracic aorta was quickly removed, and the connective tissue and the endothelium were gently cleaned and then ring preparation was cut. The preparations were suspended in a 25 ml organ bath which was maintained at 37° C. under an aeration of 95% O2 -5% CO2. An initial tension of 1.5 g was applied and preincubation was performed for 60 minutes. The organ bath was filled with Krebs-Henselait solution (NaCl=118, KCl=4.7, CaCl2 2.55, MgSO4 =1.18, KH2 PO4 =1.18, NaHCO3 =24.88, glucose=11.1). The constriction of the samples was ionotropicaly measured using an isometric transducer (UL-10GR, Minebea) and an amplifier (6M92, NEC SANEI) and recorded by a recticorder (RECTI-HORIZ-8K, NEC SANEI).

[3] = target: T2, thromboxane A2 (TxA2) receptor (Cavia porcellus, UniProt A0A286Y4I8); assay: TxA2 antagonist action by binding assay; details: washed guinea pig platelets, 1 nM [3H]-SQ29,548, 45 minutes at 25° C.
T2 construct: to obtain washed platelets; from tissue; host or cells: washed platelets of male Hartley guinea pigs
T2 sequence (A0A286Y4I8 1-347): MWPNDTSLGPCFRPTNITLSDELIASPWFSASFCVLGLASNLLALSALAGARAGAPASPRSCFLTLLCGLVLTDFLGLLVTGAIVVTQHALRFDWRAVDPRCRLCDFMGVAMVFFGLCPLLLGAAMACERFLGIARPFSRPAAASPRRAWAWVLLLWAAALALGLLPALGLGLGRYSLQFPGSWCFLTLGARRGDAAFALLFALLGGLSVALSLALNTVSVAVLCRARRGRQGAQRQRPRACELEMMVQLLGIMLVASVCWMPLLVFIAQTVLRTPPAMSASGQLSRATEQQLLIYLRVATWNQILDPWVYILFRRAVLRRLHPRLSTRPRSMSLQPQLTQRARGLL
Summary of the method: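 Washed platelets from male Hartley guinea pigs, 4×10^8 cells/ml, were incubated with test compound and a labelled ligand for 45 minutes at 25 °C. Bound radioactivity was collected by GF/B filtration and scintillation counting; IC50 came from binding/control-binding ratio.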

| IC50 [1] [µM] | Kb [2] [nM] | IC50 [3] [µM] | SMILES |
| --- | --- | --- | --- |
| 0.17 | 5.89 | 0.033 | O=C(O)Cc1ccc(NC(=O)C(COC2CCCCO2)NS(=O)(=O)c2ccc(Br)cc2)cc1 (racemic) [Example 54, (RS)-2-(4-bromobenzenesulfonylamino)-N-(4-(carboxymethyl)phenyl)-3-(tetrahydropyran-2-yloxy)propanamide] |
| – | 41.7 | – | O=C(O)c1cccc(NC(=O)[C@H](COC2CCCCO2)NS(=O)(=O)c2ccc(Cl)cc2)c1 (stereo partly drawn) [Example 43, (S)-N-(3-carboxyphenyl)-2-(4-chlorobenzenesulfonylamino)-3-(tetrahydropyran-2-yloxy)propanamide] |
| 1.7 | 126 | 2 | O=C(O)COc1ccc(CCNS(=O)(=O)c2ccc(Cl)cc2)cc1 [Control Compound, 4-[2-(4-chlorobenzenesulfonylamino)ethyl]-phenoxy acetic acid, reference compound] |
| 0.52 | 28.8 | 0.5 | O=C(O)c1ccc(NC(=O)C(COC2CCCCO2)NS(=O)(=O)c2ccc(Cl)cc2)cc1 (racemic) [Example 40, (RS)-N-(4-carboxyphenyl)-2-(4-chlorobenzenesulfonylamino)-3-(tetrahydropyran-2-yloxy)propanamide] |
| 0.53 | 3.8 | 0.016 | O=C(O)Cc1ccc(NC(=O)C(COC2CCCCO2)NS(=O)(=O)c2ccc(I)cc2)cc1 (racemic) [Example 55, (RS)-N-(4-(carboxymethyl)phenyl)-2-(4-iodobenzenesulfonylamino)-3-(tetrahydropyran-2-yloxy)propanamide] |
| – | 12.6 | 0.2 | O=C(O)c1ccc(NC(=O)[C@H](COC2CCCCO2)NS(=O)(=O)c2ccc(Cl)cc2)cc1 (stereo partly drawn) [Example 39, (S)-N-(4-carboxyphenyl)-2-(4-chlorobenzenesulfonylamino)-3-(tetrahydropyran-2-yloxy)propanamide] |
| 0.3 | 32.4 | 0.4 | O=C(O)c1cccc(NC(=O)C(COC2CCCCO2)NS(=O)(=O)c2ccc(Cl)cc2)c1 (racemic) [Example 44, (RS)-N-(3-carboxyphenyl)-2-(4-chlorobenzenesulfonylamino)-3-(tetrahydropyran-2-yloxy) propanamide] |
| 0.18 | 6.92 | 0.057 | O=C(O)Cc1ccc(NC(=O)C(COC2CCCCO2)NS(=O)(=O)c2ccc(Cl)cc2)cc1 (racemic) [Example 41, (RS)-N-(4-(carboxymethyl)phenyl)-2-(4-chlorobenzenesulfonylamino)-3-(tetrahydropyran-2-yloxy)propanamide] |
| 0.54 | 12.9 | 0.088 | O=C(O)CCc1ccc(NC(=O)C(COC2CCCCO2)NS(=O)(=O)c2ccc(Cl)cc2)cc1 (racemic) [Example 42, (RS)-N-(4-(2-carboxyethyl)phenyl)-2-(4-chlorobenzenesulfonylamino)-3-(tetrahydropyran-2-yloxy)propanamide] |
